Assay results from patent EP1792902A1, “Processes for preparation of 5-(6-quinazolinyl)-furan-2-carbaldehydes” (priority 2000, dated 2002).

Columns and labels:
[1] = Moisture sorption testing; assay type: physicochemical; conditions: at the humidities to which it might be exposed (e.g., 20-75% relative humidity (RH))
Experimental: Approximately 12 mg of N-{3-Chloro-4-[(3-fluorobenzyl) oxy]phenyl}-6-[5-({[2-(methanesulphonyl)ethyl] amino}methyl)-2-furyl]-4-quinazolinamine ditosylate monohydrate salt prepared according to Example 10 was weighed into a sample pan of a moisture sorption apparatus (model number SGA-100, made by VTI). The sample was dried at 60°C under a nitrogen stream until the weight loss was less than 0.015% in 5 minutes. The relative humidity (RH) was then increased (adsorption) to 5, 15, 25, 35, 45, 55, 65, 75, 85 and 95% - at each step, equilibrium was defined as a weight change of less than 0.015% in 5 minutes. The relative humidity was then decreased (desorption) to 90, 80, 70, 60, 50, 40, 30, and 20% with the same equilibrium condition. The sorption curve (y-axis: Weight - % change vs. x-axis: % RH) is depicted in Figure 3(a).
Approximately 15 mg of N-{3-Chloro-4-[(3-fluorobenzyl) oxy]phenyl}-6-[5-({[2-(methanesulphonyl)ethyl]amino}methyl)-2-furyl]-4-quinazolinamine di-HCl salt was weighed into a sample pan of a moisture sorption apparatus (model number SGA-100 , made by VTI). The sample was dried at 60°C under a nitrogen stream until the weight loss was less than 0.015% in 5 minutes. The relative humidity was then increased (adsorption) to 5, 15, 25, 35, 45, 55, 65, 75, 85 and 95% - at each step, equilibrium was defined as a weight change of less than 0.015% in 5 minutes. […]

[2] = test system: gastric tumor (N87) cell lines; assay: Methylene Blue Growth Inhibition Assay, N87; assay type: cell-based; conditions: Homo sapiens, 72 h; 3 days incubation, methylene blue staining
Experimental: (§1) Human breast (BT474), head and neck (HN5) and gastric tumor (N87) cell lines and human foreskin Fibroblasts (HFF) were cultured in low glucose DMEM (Life Technologies 12320-032) containing 10% fetal bovine serum (FBS) at 37°C in a humidified 10% CO2, 90% air incubator. The SV40 transformed human mammary epithelial cell line HB4a was transfected with either human H-ras cDNA (HB4a r4.2) or the human c-erbB2 cDNA (HB4a c5.2). The HB4a clones were cultured in RPMI containing 10% FBS, insulin (5 µg/ml), hydrocortisone (5 µg/ml), supplemented with the selection agent hygromycin B (50µg/ml). Cells were harvested using trypsin/EDTA, counted using a haemocytometer, and plated in […] of the appropriate media, at the following densities, in a 96-well tissue culture plate (Falcon 3075): BT474 10,000 cells/well, HN5 3,000 cells/well, N87 10,000 cells/well, HB4a c5.2 3,000 cells/well, HB4a r4.2 3,000 cells/well, HFF 2500 cells/well. The next day, compounds were diluted in DMEM containing […] gentamicin, at twice the final required concentration, from 10mM stock solutions in DMSO. […]/well of these dilutions were added to the 100ml of media currently on the cell plates. Medium containing 0.6% DMSO was added to control wells. Compounds diluted in DMEM were added to all cell lines, including the HB4a r4.2 and HB4a c5.2 cell lines. The final concentration of DMSO in all wells was 0.3%. Cells were incubated at 37°C, 10% CO2 for 3 days. Medium was removed by aspiration. Cell biomass was estimated by staining cells with 100µl per well methylene blue (Sigma M9140, 0.5% in 50:50 ethanol:water), and incubation at room temperature for at least 30 minutes. Stain was removed, and the plates rinsed under a gentle stream of water, and air-dried. To release stain from the cells 100µl of solubilization solution was added (1% N-lauroyl sarcosine, Sodium salt, Sigma L5125, in PBS), and plates were shaken gently for about 30 minutes. Optical density at 620 nm was measured on a microplate reader. Percent inhibition of cell growth was calculated relative to vehicle treated control wells. […]

breast (BT474) = assay: Methylene Blue Growth Inhibition Assay, BT474; assay type: cell-based; conditions: Homo sapiens, BT-474, 72 h; 3 days incubation, methylene blue staining; read-out: BT474 IC50 uM Cell
Experimental: as §1

c-erbB-2 = target: T1, c-erbB-2 (Homo sapiens, UniProt P04626); assay: Substrate phosphorylation assay, erbB2 tyrosine kinase inhibition; assay type: biochemical; conditions: tested in buffered solution
T1 construct: recombinant constructs of the intracellular domains of c-erbB-2 and c-erbB-4 that are constitutively active; made in house
Description: (§2) The substrate phosphorylation assays use baculovirus expressed, recombinant constructs of the intracellular domains of c-erbB-2 and c-erbB-4 that are constitutively active and EGFr isolated from solubilised A431 cell membranes. The method measures the ability of the isolated enzymes to catalyse the transfer of the g-phosphate from ATP onto tyrosine residues in a biotinylated synthetic peptide (Biotin-[…]. Substrate phosphorylation was detected following either of the following two procedures: • a.) c-ErbB-2, c-ErbB4 or EGFr were incubated for 30 minutes, at room temperature, with 10mM MnCl2, […], and test compound (diluted from a 5mM stock in DMSO, final DMSO concentration is 2%) in 40mM HEPES buffer, pH 7.4. The reaction was stopped by the addition of EDTA (final concentration 0.15mM) and a sample was transferred to a streptavidin-coated 96-well plate. The plate was washed and the level of phosphotyrosine on the peptide was determined using a Europium-labelled antiphosphotyrosine antibody and quantified with a time-resolved fluorescence technique. • b.) ErbB2 was incubated for 50 minutes at room temperature with 15 mM MnCl2, 2 mM ATP, 0.25 mCi [g-^33P] […] The SPA signal was measured using a Packard Topcount 96-well plate scintillation counter (Packard Instrument Co., Meriden, CT).

head and neck (HN5) = assay: Methylene Blue Growth Inhibition Assay, HN5; assay type: cell-based; conditions: Homo sapiens, 72 h; 3 days incubation, methylene blue staining; read-out: HN5 IC50 uM Cell
Experimental: as §1

[3] = target: EGFr isolated from solubilised A431 cell membranes (Homo sapiens, UniProt P00533); assay: Substrate phosphorylation assay, EGFR tyrosine kinase inhibition; assay type: biochemical; conditions: tested in buffered solution
Description: as §2

c-erbB-4 = target: T2, c-erbB-4 (Homo sapiens, UniProt Q15303); assay: Substrate phosphorylation assay, erbB4 tyrosine kinase inhibition; assay type: biochemical; conditions: tested in buffered solution
T2 construct: recombinant constructs of the intracellular domains of c-erbB-2 and c-erbB-4 that are constitutively active; made in house
Description: as §2

[4] = Slurry equilibration method, relative physical stability of anhydrate and monohydrate crystal forms; conditions: for Equilibrium Form: 25°C, pXRD

T1 sequence (P04626 676-1255 limits assumed): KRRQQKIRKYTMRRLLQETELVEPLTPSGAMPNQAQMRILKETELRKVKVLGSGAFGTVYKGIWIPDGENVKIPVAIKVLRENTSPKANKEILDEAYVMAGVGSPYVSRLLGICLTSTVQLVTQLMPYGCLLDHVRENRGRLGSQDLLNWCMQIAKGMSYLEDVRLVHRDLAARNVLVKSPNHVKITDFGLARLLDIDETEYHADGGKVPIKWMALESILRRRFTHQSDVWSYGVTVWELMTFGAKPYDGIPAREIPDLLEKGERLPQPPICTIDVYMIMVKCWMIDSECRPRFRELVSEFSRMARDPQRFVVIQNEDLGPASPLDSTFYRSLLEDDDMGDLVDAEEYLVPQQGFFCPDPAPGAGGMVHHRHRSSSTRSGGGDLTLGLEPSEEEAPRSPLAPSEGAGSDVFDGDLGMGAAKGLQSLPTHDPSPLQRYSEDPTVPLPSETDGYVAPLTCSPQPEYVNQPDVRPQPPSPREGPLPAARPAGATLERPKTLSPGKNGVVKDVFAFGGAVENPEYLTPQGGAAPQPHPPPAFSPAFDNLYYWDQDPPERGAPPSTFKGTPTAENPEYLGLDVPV
T2 sequence (Q15303 676-1308 limits assumed): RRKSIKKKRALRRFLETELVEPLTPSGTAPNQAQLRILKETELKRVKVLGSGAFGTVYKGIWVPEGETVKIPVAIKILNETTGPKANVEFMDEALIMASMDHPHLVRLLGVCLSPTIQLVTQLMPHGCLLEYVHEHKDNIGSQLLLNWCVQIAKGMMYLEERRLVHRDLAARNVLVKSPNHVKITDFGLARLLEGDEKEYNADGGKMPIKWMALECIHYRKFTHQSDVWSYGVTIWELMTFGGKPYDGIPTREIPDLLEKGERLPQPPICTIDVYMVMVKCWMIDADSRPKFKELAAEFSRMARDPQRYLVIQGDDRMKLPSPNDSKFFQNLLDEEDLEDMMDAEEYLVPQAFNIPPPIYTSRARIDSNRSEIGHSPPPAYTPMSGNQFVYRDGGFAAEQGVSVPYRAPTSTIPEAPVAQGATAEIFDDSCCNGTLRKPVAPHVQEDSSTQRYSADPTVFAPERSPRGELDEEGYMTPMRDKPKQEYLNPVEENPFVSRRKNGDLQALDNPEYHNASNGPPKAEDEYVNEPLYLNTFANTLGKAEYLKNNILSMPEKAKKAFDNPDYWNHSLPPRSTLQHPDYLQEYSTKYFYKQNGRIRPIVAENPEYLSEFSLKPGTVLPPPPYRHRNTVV
Sequence of EGFr isolated from solubilised A431 cell membranes (P00533 25-1210): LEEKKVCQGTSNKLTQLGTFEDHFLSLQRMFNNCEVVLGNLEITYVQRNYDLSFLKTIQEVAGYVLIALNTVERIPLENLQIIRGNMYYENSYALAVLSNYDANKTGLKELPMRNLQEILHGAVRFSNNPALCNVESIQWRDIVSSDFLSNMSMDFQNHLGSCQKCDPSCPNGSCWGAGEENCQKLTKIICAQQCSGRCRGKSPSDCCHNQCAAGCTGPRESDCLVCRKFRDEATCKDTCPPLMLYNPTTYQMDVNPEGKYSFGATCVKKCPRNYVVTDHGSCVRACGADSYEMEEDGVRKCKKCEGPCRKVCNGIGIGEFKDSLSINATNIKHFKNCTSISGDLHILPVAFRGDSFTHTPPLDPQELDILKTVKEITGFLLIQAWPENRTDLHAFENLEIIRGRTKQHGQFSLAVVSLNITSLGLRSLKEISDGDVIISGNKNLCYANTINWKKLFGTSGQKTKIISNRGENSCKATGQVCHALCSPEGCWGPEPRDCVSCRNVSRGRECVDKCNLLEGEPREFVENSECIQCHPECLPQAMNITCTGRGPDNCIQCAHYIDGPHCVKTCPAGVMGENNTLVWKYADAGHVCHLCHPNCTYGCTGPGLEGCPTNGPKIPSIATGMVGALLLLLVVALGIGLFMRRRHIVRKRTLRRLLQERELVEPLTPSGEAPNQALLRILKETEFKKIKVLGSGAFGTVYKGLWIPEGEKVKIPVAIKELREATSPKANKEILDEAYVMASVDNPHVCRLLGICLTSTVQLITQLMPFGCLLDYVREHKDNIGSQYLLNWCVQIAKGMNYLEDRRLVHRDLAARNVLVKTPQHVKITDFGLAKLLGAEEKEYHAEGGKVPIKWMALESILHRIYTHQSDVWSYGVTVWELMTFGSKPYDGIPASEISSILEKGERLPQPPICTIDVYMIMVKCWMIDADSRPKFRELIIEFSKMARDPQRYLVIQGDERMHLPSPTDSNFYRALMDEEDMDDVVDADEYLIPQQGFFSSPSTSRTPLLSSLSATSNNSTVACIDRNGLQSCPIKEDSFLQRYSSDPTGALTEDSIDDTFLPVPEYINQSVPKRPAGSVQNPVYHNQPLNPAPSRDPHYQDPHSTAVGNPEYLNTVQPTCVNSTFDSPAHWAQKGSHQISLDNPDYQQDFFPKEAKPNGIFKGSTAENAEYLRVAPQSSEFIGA

Row | SMILES | IC50 [2] [µM] | IC50 (breast (BT474)) [µM] | IC50 (c-erbB-2) [µM] | IC50 (head and neck (HN5)) [µM] | IC50 [3] [µM] | IC50 (c-erbB-4) [µM] | further results
1 | CS(=O)(=O)CCNCc1ccc(-c2ccc3ncnc(Nc4ccc(OCc5cccc(F)c5)c(Cl)c4)c3c2)o1.Cl.Cl [di-HCl salt, N-{3-Chloro-4-[(3-fluorobenzyl)oxy]phenyl}-6-[5-({[2-(methanesulphonyl)ethyl]amino}methyl)-2-furyl]-4-quinazolinamine di-HCl salt] | – | – | – | – | – | – | water sorption [1]: sorbs very large amounts of water
2 | CS(=O)(=O)CCNCc1ccc(-c2ccc3ncnc(Nc4ccc(OCc5cccc(F)c5)c(Br)c4)c3c2)o1 [Example 12, (4-(3-Fluoro-benzyloxy)-3-bromophenyl)-(6-(5-((2-methanesulphonyl-ethylamino)-methyl)-furan-2 yl)quinazolin-4 yl)-amine ditosylate] | < 5 | < 5 | < 0.1 | < 5 | < 0.1 | 1 to 10 | –
3 | CS(=O)(=O)CCNCc1nc(-c2ccc3ncnc(Nc4ccc(OCc5cccc(F)c5)c(Cl)c4)c3c2)cs1 [Example 13, (4-(3-Fluoro-benzyloxy)-3-chlorophenyl)-(6-(2-((2-methanesulphonyl-ethylamino)-methyl)-thiazol-4-yl)quinazolin-4-yl)-amine ditosylate] | < 5 | < 5 | < 0.1 | < 5 | < 0.1 | 0.1 to 1 | –
4 | CS(=O)(=O)CCNCc1ccc(-c2ccc3ncnc(Nc4ccc(OCc5cccc(F)c5)c(Cl)c4)c3c2)o1 [Example 8, N-{3-Chloro-4-[(3-fluorobenzyl)oxy]phenyl}-6-[5({[2-(methanesulphonyl)ethyl]amino}methyl)-2-furyl]-4-quinazolinamine ditosylate anhydrate] | < 5 | < 5 | – | < 5 | – | – | –
5 | CS(=O)(=O)CCNCc1ccc(-c2ccc3ncnc(Nc4ccc(OCc5cccc(F)c5)c(Cl)c4)c3c2)o1 [Example 10, N-{3-Chloro-4-[(3-f/uorobenzyl)oxy]phenyl}-6-[5-({[2-(methanesulphonyl)ethyl]amino}methyl)-2-furyl]-4-quinazolinamine ditosylate monohydrate] | – | – | – | – | – | – | RH at which the monohydrate becomes the thermodynamically stable form ([4]; remains stable up through 100% RH, slurry equilibration at 25°C): 7 - 15 % RH
6 | CS(=O)(=O)CCNCc1ccc(-c2ccc3ncnc(Nc4ccc(OCc5cccc(F)c5)c(Cl)c4)c3c2)o1.Cc1ccc(S(=O)(=O)O)cc1.Cc1ccc(S(=O)(=O)O)cc1 [N-{3-Chloro-4-[(3-fluorobenzyl)oxy]phenyl}-6-[5-({[2-(methanesulphonyl)ethyl]amino}methyl)-2-furyl]-4-quinazolinamine ditosylate] | – | – | – | – | – | – | Equilibrium Form ([4]; RH 0 %, Water Volume 0 %, Water Mole Fraction 0.00, 1:1 anhydrate/monohydrate slurry in MeOH/H2O): Anhydrate; Equilibrium Form ([4]; RH 7 %, Water Volume 2 %, Water Mole Fraction 0.04, 1:1 anhydrate/monohydrate slurry in MeOH/H2O): Anhydrate; Equilibrium Form ([4]; RH 15 %, Water Volume 5 %, Water Mole Fraction 0.11, 1:1 anhydrate/monohydrate slurry in MeOH/H2O): Monohydrate; Equilibrium Form ([4]; RH 26 %, Water Volume 10 %, Water Mole Fraction 0.20, 1:1 anhydrate/monohydrate slurry in MeOH/H2O): Monohydrate; Equilibrium Form ([4]; RH 43 %, Water Volume 20 %, Water Mole Fraction 0.36, 1:1 anhydrate/monohydrate slurry in MeOH/H2O): Monohydrate; Equilibrium Form ([4]; RH 66 %, Water Volume 40 %, Water Mole Fraction 0.60, 1:1 anhydrate/monohydrate slurry in MeOH/H2O): Monohydrate; Equilibrium Form ([4]; RH 80 %, Water Volume 60 %, Water Mole Fraction 0.77, 1:1 anhydrate/monohydrate slurry in MeOH/H2O): Monohydrate; Equilibrium Form ([4]; RH 91 %, Water Volume 80 %, Water Mole Fraction 0.90, 1:1 anhydrate/monohydrate slurry in MeOH/H2O): Monohydrate; Equilibrium Form ([4]; RH 95 %, Water Volume 90 %, Water Mole Fraction 0.95, 1:1 anhydrate/monohydrate slurry in MeOH/H2O): Monohydrate; Equilibrium Form ([4]; RH 100 %, Water Volume 100 %, Water Mole Fraction 1.00, 1:1 anhydrate/monohydrate slurry): Monohydrate
